Measured values as given in PMC11077991, “The small molecule CBR-5884 inhibits the Candida albicans phosphatidylserine synthase” (mBio, 2024).
Converted amounts (≈) assume the structure as drawn. “And” between values parts separate entries of the source, which are not always exact repeats. Equal values may be shown once. Read-outs that look alike come from different tables or passages of the source.

B1: Candida albicans phosphatidylserine synthase Cho1 (enzyme, UniProt A0A1D8PF32 1-273, looked up)
chain: MSDSSATGFSKHQESAIVSDSEGDAIDSELHMSANPPLLRRSSSLFSLSSKDDLPKPDSKEYLKFIDDNRHFSMIRNLHMADFITLLNGFSGFYSIISCLRYTLTGQTHYVQRAHFFILLGLFFDFFDGRVARLRNKSSLMGQELDSLADLVSFGVSPATIAFAIGFRTTVDVLFLAFWVLCGLTRLARFNISVNNIPKDKHGKSQYFEGLPIPTNLFWVGFMALLVYKDWIHDNLPFGIVFQDTSFEFHLVTIGFVLQGCAEISKSLKIPKP
notes: Cho1, phosphatidylserine synthase (EC 2.7.8.8) of Candida albicans, CHO1 gene expressed from the TEF1 promoter; A TEV site (ENLYFQG) lies between Cho1 and the HAx3-HISx8 tag; The forward cloning primer begins at the ATG of CHO1; also called PS synthase; CDP-diacylglycerol-serine O-phosphatidyltransferase; not shown: HAx3, C-terminal, cleaved; His8, C-terminal, cleaved

Tests used:
[1] = biological target: purified C. albicans Cho1 (phosphatidylserine synthase) (Candida albicans, UniProt A0A1D8PF32); assay: malachite-green-based nucleotidase-coupled assay, dose-response; assay type: biochemical; conditions: top 200 µM, 3 h at 30°C, three replicates
Method: A malachite-green-based nucleotidase-coupled assay was used to measure the PS synthesis activity of Cho1 (Fig. 1B). Cho1 catalyzes the production of PS and cytidylmonophosphate (CMP) from CDP-DAG and serine, where CMP can then be recognized and cleaved by the nucleotidase CD73 to release inorganic phosphate, which is subsequently detected by malachite green. To test whether this malachite-green-based assay can reflect Cho1 activity, a time-course test was performed with a fixed amount of purified Cho1 in the presence of substrates (Fig. 1C).
The bioactives library was purchased from Selleck in 2014, and the remaining libraries (anti-infectives and mechanism of action libraries) were assembled from compounds available at the Chemical Biology and Therapeutics Department at St. Jude Children’s Research Hospital. The anti-infectives library contains a curated list of antimicrobials and antiviral agents ([95]). The bioactive library has a compilation of compounds acquired from commercial sources and external academic collaborators. The mechanism of action set is a dynamic set of well-annotated compounds with comprehensive coverage of human targets and mechanisms of action ([96]). All compounds were dissolved in DMSO and 100 nL was transferred to a 384-well clear bottom plate (ThermoFisher Scientific, cat# 265203) using a Beckman Echo 650 acoustic liquid handler. Equal volumes of either the selective CD73 nucleotidase inhibitor AB680 at a final concentration of 1 µM (MedChemExpress, cat# HY-125286) or DMSO were used as positive and negative controls, respectively. A total of 30–35 ng of purified Cho1 protein was used in each reaction in 50 mM Tris-HCl (pH 8.0) for primary screening, combined with 100 µM CDP-DAG (Avanti, cat# 870510), 5 mM serine, 0.4 ng CD73 nucleotidase (R&D systems, cat# EA002), 1 mM MnCl2, 0.1% APX-100, and 0.1% digitonin, in a total volume of 10 µL. Counter screen reactions were set up by replacing only the purified Cho1 with 150 µM CMP, with all other components remaining constant. The 10 µL primary and counter screening reactions were delivered to each well of 384-well assay plates containing pre-aliquoted compounds from the library using a Multidrop Combi (ThermoFisher Scientific). […] After media transfer, assay plates were incubated for 3 h at 30°C. Plates were then removed and 32 µL of malachite green mixture [6 µL malachite A (2%, wt/vol, ammonium molybdate and 20%, vol/vol, sulfuric acid in H2O) +20 µL H2O + 6 µL malachite B (0.1%, wt/vol, malachite green oxalate and 0.5%, wt/vol, polyvinyl alcohol in H2O)] were added to each well via a MultiDrop Combi and incubated for an additional 10 min at room temperature. After incubation, plates were briefly centrifuged at 500 × g and absorbance at 620 nm was then measured using a Cytation7 plate reader (Biotek, Winooski, VT). Raw absorbance values of the compounds were normalized to DMSO (0% inhibition) and AB680 (100% inhibition) from both primary and counter screens, and % Δinhibition was calculated by […]. Z-factors for each plate were calculated using the in-house program RISE (Robust Investigation of Screening Experiments). All non-PAINs compounds that had >80% Δinhibition progressed to dose-response testing (82 total compounds). Dose-response experiments were performed in triplicate as described above using a 10-point, threefold serial dilution with the top concentration for each compound tested being 200 µM (range: 0.010161–200 μM). The absorbance at 620 nm was then measured using a PHERAstar FS multilabel reader (BMG, Cary, NC). Raw values were once again normalized to DMSO (0% inhibition) and AB680 (100% inhibition) and Z-factors for each plate were calculated using RISE. […]

[2] = test system: wild-type C. albicans strain SC5314; assay: CLSI MIC broth microdilution; assay type: cell-based, Candida albicans; conditions: for MIC: Candida albicans; for effect on cell growth in all three media: even at 250 µM
Method: We then tested the effects of the six compounds on live cells by determining the minimal inhibitory concentrations (MICs) of these compounds. Following the standard Clinical & Lab Standards Institute (CLSI) MIC broth microdilution methods, wild-type C. albicans strain SC5314 was grown with avasimibe, CBR-5884, tideglusib, ebselen, ML-345, and LOC14 in RPMI MOPS medium (pH 7.0) or alternatively in minimal medium or minimal medium with HEPES (pH 7.0) at 37°C for 48 h, along with a cho1ΔΔ strain as a control (Fig. 3A through C). The concentration of the compounds was varied from 0.5 to 250 µM. […] Ebselen, LOC14, and CBR-5884, on the contrary, stopped cell growth at different concentrations in all three media, with MICs ranging between 7.8 and 31.3 μM (Fig. 3A through D). […] Specific MIC values are summarized in Fig. 3D for all the compounds.
Minimum inhibitory concentration (MIC) was determined following Clinical & Lab Standards Institute (CLSI) MIC broth microdilution protocol (Licensed to Todd Reynolds, license # Ord-1138682) ([98], [99]). Briefly, stock solutions of different compounds (purchased from MedChemExpress) were prepared at a concentration of 10 mM in DMSO and subsequently diluted as required in the same solvent. Wild-type C. albicans strain SC5314, as well as four additional wild-type strains—GDH2346, 3153A, TFPY412, and TFPY2307, were cultured overnight in YPD medium at 30°C, washed with water three times, and then diluted to a concentration of 2 × 10^3 cells/mL (OD600 = 0.00008) in one of the three media [minimal medium, minimal medium buffered with 50 mM HEPES (pH 7.0) and RPMI MOPS (pH 7.0)]. The cho1ΔΔ strain was also included as a control. A volume of 100 µL from each cell suspension was dispensed into the wells of a flat-bottom 96-well plate. An additional 100 µL of corresponding medium, containing twice the final desired concentration of each drug, was added to each well, leading to a final initial inoculum of 1 × 10^3 cells/mL (OD600 = 0.00004). The final DMSO concentration was maintained at 2.5% across all treatments. Following preparation, the plates were incubated at 37°C for 48 h and photos were taken with a Bio-Rad Gel Doc XR + Imaging System.

[3] = precipitation in MIC media; assay type: physicochemical
[4] = biological target: the molecule itself; assay: native gel or EMSA; blue native PAGE of purified tag-free Cho1 in digitonin, stained with Coomassie Blue R-250; MW estimated with the band analysis tool of Quantity One
[5] = 10-point dose-response, read-out: Best-fit IC50, inhibition of Cho1
[6] = SC5314, RPMI MOPS pH 7.0, 37°C, 48 h, read-out: Minimal Inhibitory Concentration (MIC): RPMI, MOPS 7.0
[7] = SC5314, minimal medium with 50 mM HEPES pH 7.0, 37°C, 48 h, read-out: Minimal Inhibitory Concentration (MIC): MM, HEPES 7.0
[8] = SC5314, minimal medium, 37°C, 48 h, read-out: Minimal Inhibitory Concentration (MIC): MM

Molecule | IC50 [1, 5] | MIC [2, 6] [µM] | MIC [2, 7] [µM] | MIC [2, 8] [µM] | effect on cell growth in all three media [2] | other results
O=c1c2cc(F)ccc2sn1-c1cc(S(=O)(=O)N2CCOCC2)ccc1N1CCOCC1 [ML-345] | ≤ 20 µM and ~15.5 µM |  |  |  |  | MIC ([2]; SC5314, 48 h, pH 7, read-out: Minimal Inhibitory Concentration (MIC): MM, HEPES 7.0): > 500 µM; MIC ([2]; SC5314, 48 h, pH 7, read-out: Minimal Inhibitory Concentration (MIC): RPMI, MOPS 7.0): 31.3 µM (≈ 15 µg/mL); MIC ([2]; SC5314, 48 h, read-out: Minimal Inhibitory Concentration (MIC): MM): > 500 µM; effect on cells grown in the minimal media ([2]; minimal media): had no effect
CC(C)c1cc(C(C)C)c(CC(=O)NS(=O)(=O)Oc2c(C(C)C)cccc2C(C)C)c(C(C)C)c1 [Avasimibe] | ~23.4 µM | > 500 | > 500 | > 500 | did not affect cell growth | solubility in MIC media [3]: precipitated at high concentrations
O=c1sn(-c2cccc3ccccc23)c(=O)n1Cc1ccccc1 [Tideglusib] |  | > 500 | > 500 | > 500 | did not affect cell growth | IC50 ([1]; Best-fit IC50, inhibition of Cho1, 10-point dose-response): ≤ 20 µM and ~8.53 µM; solubility in MIC media ([3]; concentrations 0.5 to 250 µM): precipitated at high concentrations
c1ccc(Nc2nc3c(s2)CCCc2[nH]ncc2-3)nc1 [TC-N 22A] | ~65.3 µM |  |  |  |  | 
B1 |  |  |  |  |  | stoichiometry N [4]: 6
